# According to patent publication US20090182033A1, “Cyclic Amine Derivatives and Their Uses” (ARGENTA DISCOVERY LTD., priority 2005, published 2009):
# pKi: −log10 of the molar value.
# Target: T1, M3 muscarinic receptor (Homo sapiens, UniProt P20309)
# T1 construct: purchased
# Assay: Muscarinic receptor radioligand binding assay ([3H]-NMS)
# Conditions: cell membranes expressing the human muscarinic receptors, 3 hours incubation, read-out: binding affinity Ki
# Method: The inhibitory effects of compounds of the present invention at the M3 muscarinic receptor were determined by the following binding assays:
# Radioligand binding studies utilising [^3H]-N-methyl scopolamine ([^3H]-NMS) and commercially available cell membranes expressing the human muscarinic receptors (M2 and M3) were used to assess the affinity of muscarinic antagonists for M2 and M3 receptors. Membranes in TRIS buffer were incubated in 96-well plates with [^3H]-NMS and M3 antagonist at various concentrations for 3 hours. Membranes and bound radioligand were then harvested by filtration and allowed to dry overnight. Scintillation fluid was then added and the bound radioligand counted using a Can berra Packard Topcount scintillation counter
# T1 sequence (P20309 whole entry): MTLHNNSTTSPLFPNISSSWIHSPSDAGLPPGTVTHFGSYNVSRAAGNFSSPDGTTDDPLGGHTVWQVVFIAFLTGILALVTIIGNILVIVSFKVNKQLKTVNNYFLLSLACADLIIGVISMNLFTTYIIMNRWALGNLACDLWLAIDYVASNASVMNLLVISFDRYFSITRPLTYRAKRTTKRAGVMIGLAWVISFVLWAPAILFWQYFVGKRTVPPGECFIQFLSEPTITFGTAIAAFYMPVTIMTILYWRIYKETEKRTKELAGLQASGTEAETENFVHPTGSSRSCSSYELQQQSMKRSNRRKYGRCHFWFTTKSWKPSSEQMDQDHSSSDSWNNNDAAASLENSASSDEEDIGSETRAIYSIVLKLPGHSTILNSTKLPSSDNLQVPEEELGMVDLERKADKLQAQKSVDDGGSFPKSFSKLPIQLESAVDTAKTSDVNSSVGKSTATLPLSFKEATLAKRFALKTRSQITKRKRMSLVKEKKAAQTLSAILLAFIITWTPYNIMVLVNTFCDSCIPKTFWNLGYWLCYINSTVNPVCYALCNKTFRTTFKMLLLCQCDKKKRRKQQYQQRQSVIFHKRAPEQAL
structure (smiles),measurement,value
"C[N+](C)(CCCc1ccccc1)C1CC2CCC1C2OCc1ccccc1 [Example 6, Anti (1S, 2S) (7-benzyloxybi-cyclo[2.2.1]hept-2-yl)-dimethyl-(3-phenyl-propyl)-ammonium bromide]",pKi,> 7.00
